Measured values from patent US10577322B2, “5-methoxytryptophan and its derivatives and uses thereof” (National Health Research Institutes, priority 2015, dated 2020).

Tests used:
COX-2 = experiment: LPS-induced COX-2 expression in peritoneal macrophages (western blot); format: cell-based; settings: primary mouse peritoneal macrophages, LPS 8 h
Protocol: For peritoneal macrophage isolation, C57BL/6J mice were injected intraperitoneally with 2 ml of 4% thioglycollate. Four days after injection, the peritoneal cavity was washed with 5 ml of ice-cold RPMI1640 medium, and cells from the peritoneal exudates were collected by centrifugation, and suspended in RPMI1640 medium, then seeded on 15-cm dishes and allowed to adhere for 4 h. Floating cells were washed out, and adherent cells were used as peritoneal macrophages in the experiments. The cells were incubated with or without LPS (100 ng/ml) for the indicated time before each experiment, as in the protocol for the RAW264.7 cells.
Furthermore, peritoneal macrophages were stimulated with LPS with or without 5-MTP. After 8 h, COX-2 protein expression was determined by western blot. The experiments were repeated 3 times with similar results.

TNF-α = experiment: LPS-induced TNF-α production in RAW264.7 cells; format: cell-based, mouse; settings: data not shown
lung tissues = experiment: Lung histology (H&E) in LPS-treated mice; format: in vivo; settings: LPS 60 mg/kg
Protocol: For histological studies, the lungs were perfused with saline, and immersed in formalin for 24 h. Tissue blocks were placed in formalin, dehydrated in a graded series of ethanol, embedded in paraffin, cut into 3 μm-thick serial sections, and stained with haematoxylin and eosin for detecting inflammatory cells, alveolar congestion and alveolar septal wall thickness and interstitial edema.
In addition, paraffin-embedded sections were prepared from lungs of mice injected with 60 mg/kg LPS with or without saline or 5-MTP for the indicated time. Lung tissues were stained with hematoxylin and eosin and examined under light microscopy. The results are shown in FIG. 5C, in which scale bars represent 100 μm.

[1] = tested on: proinflammatory cytokines; experiment: Proinflammatory cytokines level in serum of LPS-treated mice (ELISA); format: in vivo
Protocol: C57BL/6 mice (6-8 wks old) were treated intraperitoneally with saline or with different concentrations of 5-MTP (23.4 or 100 mg/kg) for 30 min before intraperitoneal administration of LPS (60 mg/kg). Animals were monitored for survival and other clinical signs including ruffled fur, lethargy, diarrhea, and body weight loss. Some animals were sacrificed at different times after LPS injection. Blood samples, peritoneal exudates, lungs, and spleens were collected. All mouse experiments were approved by the institutional Animal Care and Use Committee, National Health Research Institutes.
Cytokine levels in the culture supernatants and serum were determined in microtiter plates (96-well) by a specific sandwich ELISA (Biosource) as previously described (Wu, J. Y. & Kuo, C. C. Pivotal role of ADP-ribosylation factor 6 in Toll-like receptor 9-mediated immune signaling. J Biol Chem 287, 4323-4334 (2012)) (Lee, G. L., et al. TLR 2 induces vascular smooth muscle cell migration through cAMP response element-binding protein-mediated interleukin-6 production. Arterioscler Thromb Vasc Biol 32, 2751-2760 (2012); hereinafter, Lee, G. L., et al.).
Mice were injected intraperitoneally with or without different concentrations of 5-MTP or saline for 30 min, followed by LPS administration for the indicated time. Proinflammatory cytokines level in serum was measured by ELISA. (n=6 per group).

peritoneal macrophages = experiment: Ex vivo cytokine production of peritoneal macrophages from endotoxemic mice; format: in vivo; settings: macrophages isolated 8 h after LPS, 5-MTP 23.4 mg/kg, cultured 24 h
Protocol: To further confirm that 5-MTP deactivates peritoneal macrophages during endotoxemia, we evaluated the effect of 5-MTP on IL-1β and IL-6 production ex vivo in peritoneal macrophages isolated from untreated or 5-MTP-treated endotoxemic mice. Peritoneal macrophages were isolated 8 h after LPS injection with saline or 5-MTP (23.4 mg/kg) and cultured with medium alone. After 24 h, proinflammatory cytokines were measured by ELISA (n=3).

[2] = Spleen weight/body weight ratio in LPS-challenged mice; format: in vivo
Protocol: Furthermore, spleen weight/body weight (SW/BW) ratio was also assessed (n=6 mice/group).

p38 MAPK = experiment: LPS-induced p38 MAPK phosphorylation in RAW264.7 cells (immunoblot); format: cell-based, mouse; settings: LPS 4 h
Protocol: Cellular protein were resolved by 5% to 20% SDS-PAGE and transferred to nitrocellulose membranes and blotted with specific antibodies as previously described (Lee, G. L., et al.).
After pretreating RAW264.7 cells with different concentrations of 5-MTP for 30 min, cells were stimulated with LPS for 4 h. Cell lysates were immunoblotted with antibodies for p38, phospho-p38 (p-p38), ERK½, phospho-ERK½ (p-ERK½) or β-actin. […] Activation of p38 MAPK in macrophages is required for TLR-induced NF-κB activation, which is one of the key factors affecting TLR-induced cytokine production. Thus, we evaluated the effect of 5-MTP on LPS-induced. NF-κB activation.

NF-κB p65 [3] = experiment: Phospho-NF-κB p65 (Ser536) in RAW264.7 cells (immunoblot); format: cell-based, mouse; settings: LPS 4 h
Protocol: (§1) Furthermore, after pretreating RAW264.7 cells with different concentrations of 5-MTP for 30 min, cells were stimulated with. LPS for 4 h. NF-κB p65, phospho-NF-κB p65 (p-p65) (Ser536) or β-actin was determined by immunoblotting with specific antibodies. Also, peritoneal macrophages were treated with LPS with or without 5-MTP (50 μM) for the indicated time. Phospho-p65 in the lysates was analyzed by an ELISA kit. The results are shown in FIG. 10D, in which the error bars denote mean ±SD (n=3). According to FIGS. 10C-10D, 5-MTP decreased LPS-induced phosphorylation of NF-κB p65 not only in RAW264.7 cells (FIG. 10C) but also in peritoneal macrophages (FIG. 10D).

NF-κB p65 [4] = experiment: Phospho-p65 in peritoneal macrophage lysates (ELISA kit); format: cell-based, mouse; settings: peritoneal macrophages, 5-MTP 50 μM
Protocol: as §1

NF-κB p65 [5] = experiment: Phospho-p65 level in lung tissues (ELISA kit); format: in vivo, mice; settings: 4 and 8 h after LPS, 5-MTP 23.4 mg/kg
Protocol: Since NF-κB activation plays a critical role in the initiation and progression of systemic inflammation and septic pathology, the effect of 5-MTP on NF-κB activation in lung tissue was evaluated. Phospho-p65 level in lung tissues was determined by an ELISA kit at 4 and 8 h after LPS infusion with or without 5-MTP (23.4 mg/kg) (n=6 mice/group).

p300 HAT = p300 HAT activity in peritoneal macrophages; format: cell-based, mouse; settings: LPS, 5-MTP 50 μM
Protocol: p300 HAT activity in peritoneal macrophages treated with LPS in the presence or absence of 5-MTP (50 μM) for the indicated time was measured with an p300 HAT activity assay kit.

[6] = LPS-treated mice, dose- and time-dependent

## COc1ccc2[nH]cc(C[C@H](N)C(=O)O)c2c1 [5-MTP, 5-methoxytryptophan]
COX-2
  LPS-induced COX-2 expression: inhibited
TNF-α
  TNF-α production: inhibited
Lung tissues
  LPS-induced lung pathological changes (leukocyte infiltration, septal wall thickening, edema, congestion): significantly alleviated
[1]; 5-MTP at 23.4 mg/kg
  all the tested serum cytokines: significantly reduced
[1]; 5-MTP at 100 mg/kg
  all the tested serum cytokines: reduced the cytokines to the basal level
[1]; LPS-treated mice, data not shown
  rise of IL-12: suppressed the rise
[1]; [6]
  blood level of IL-1β: abated the elevation
  blood level of IL-6: abated the elevation
  blood level of INF-κ: abated the elevation
  blood level of TNF-α: abated the elevation
Peritoneal macrophages
  ex vivo IL-1β production: significantly suppressed
  ex vivo IL-6 production: significantly suppressed
[2]
  spleen weight/body weight (SW/BW) ratio, spleen edema: ameliorated spleen edema in a dose-dependent manner
p38 MAPK
  phosphorylation of p38 MAPK: dose-dependently blocked
NF-κB p65 [3]
  LPS-induced phosphorylation of NF-κB p65: decreased
NF-κB p65 [4]
  LPS-induced phosphorylation of NF-κB p65: decreased
NF-κB p65 [5]
  phosphorylation level of NF-κB p65 in lung tissues: reduced by 5-MTP
p300 HAT
  p300 HAT activation: significantly blocked p300 HAT activation up to 24 h
